{
  "source": "patent US7671057B2",
  "about": "“Therapeutic agent for type II diabetes comprising protease-inhibiting compound” (Ono Pharmaceutical Co., Ltd., priority 2004, dated 2010)",
  "format_in_all_cases": "in vivo, mouse",
  "key": {"KK-A^y/Ta Jcl mice [1]": {"system": "KK-A^y/Ta Jcl mice", "assay": "Blood-sugar level at satiety, dose-ranging food admixture up to Day 28 (Example 3)", "conditions": "for Blood-sugar level: end of the test (Day 28)", "protocol": "KK-A^y/Ta Jcl Mice (male, 6-weeks aged, the number of cases; 8 animals) were treated through individual administration, in the form of an admixture with a food, of the Test Compound 2 (N-allyl-N-{(2E)-3-[4-({4-[amino(imino)methyl]phenoxy}-carbonyl)phenyl]-2-methyl-2-propenoyl}glycine/dimethanesulfonate) of the present invention at the daily doses of 0.56 mg, 1.68 mg, 5.6 mg and 16.8 mg/100 g-food, respectively, and the Control Compound 1 (5-{4-[2-(5-ethylpyridine-2-yl)-ethoxy]benzyl}-1,3-thiazolidine-2,4-dion; pioglitazone) at the daily doses of 5.6 mg and 16.8 mg/100 g-food, respectively, […], whereby the control group was fed with an ordinary food alone.\nBlood was drawn from the tail vein individually on the day preceding to administration of each compound in the form of an admixture with a food, and on Days 6, 11, 16, 21 and 28 of administration.\nThe blood samples taken from the tail vein on the respective specified days after the administration were subjected to measurement of the blood-sugar level in accordance with the method as described in Example 1, while the plasma glucagon level after the forced oral administration performed on Days 28 was measured in accordance with the ELISA method as described in Example 1. Also, the glycosylated hemoglobin (HbA1c) and GLP-1 levels were determined in accordance with the latex coagulation method and the ELISA method (YK160, GLP-1 EIA Kit, produced by K.K. Yanaihara Kenkyu-sho of Japan), respectively, while the TG level was measured in accordance with the method as described in Example 1. The total pancreatic insulin content after oral administration of each compound was determined by adding 75% ethanol to the isolated pancreas as frozen, followed by homogenization, and collecting the insulin fraction through Sep-Pak (C18; WATER) treatment of the supernatant liquid produced by centrifugation, followed by determination with the ELIZA method."}, "KK-A^y/Ta Jcl mice [2]": {"system": "KK-A^y/Ta Jcl mice", "assay": "Blood-sugar level, administration as admixture with food (Example 2)", "protocol": "(§1) KK-A^y/Ta Jcl Mice (male, 6- to 7-weeks aged, the number of cases; 8 animals) were treated through individual administration, in the form of an admixture with a food, of the Test Compound 2 (N-allyl-N-{(2E)-3-[4-({4-[amino(imino)methyl]phenoxy}-carbonyl)phenyl]-2-methyl-2-propenoyl}glycine/dimethane-sulfonate) of the present invention and the Control Compound 1 (5-(4-[2-(5-ethylpyridine-2-yl)ethoxy]benzyl)-1,3-thiazolidine-2,4-dione; pioglitazone) at the daily dose of 16.8 mg/100 g-food for 7 consecutive days, whereby the control group was fed with an ordinary food alone.\n(§2) Blood was drawn from the tail vein individually on the day (Day 1) preceding to administration of the Test Compound in the form of an admixture with a food, and on Days 2, 5, 7 and 14 of administration, and the blood samples were subjected to measurement of the blood-sugar level in accordance with the same procedure as described in Example 1, while, at the same time, the animals were weighed."}, "[3]": {"assay": "Body weight, administration as admixture with food (Example 2)", "protocol": "as §1, §2"}, "KK-A^y/Ta Jcl mice [4]": {"system": "KK-A^y/Ta Jcl mice", "assay": "Glucose loading test after repeated administration for 14 days (Example 1)", "protocol": "As from Day 14 afterwards, the animals after being fasted for 18 hours or more were loaded orally with a glucose solution (2 g/kg, 10 mL/kg), whereby the blood-sugar levels were measured before, and 120 min. after, the said glucose loading. Each of the compounds was given orally to the animals 3 hours prior to the glucose loading, and the whole blood was drawn from each of the animals under anesthesia. Each of the said blood samples was centrifuged to yield a blood plasma, and the resultant blood plasmas were all preserved under freezing in a ultra-low-temperature freezer for subsequent use in the below-described measurements.\nThe blood-sugar level, total cholesterol level (hereinafter referred to briefly as “TC level”) and triglyceride level (hereinafter referred to briefly as “TG level”) were detected individually in accordance with the hexokinase/G-6-PDH method, enzyme method and GPO/HDAOS method, and measured with use of Biochemical Auto-Analyzer (Model AU 400, manufactured by Olympus Co. of Japan). The plasma insulin level (hereinafter referred to briefly as “IRI level”) and the plasma glucagon level (hereinafter referred to briefly as “IRG level”) were detected individually with the ELISA method (Lebisinsulin Mouse Insulin Kit, produced by K.K. Shibayagi of Japan) and the ELISA method (YK090 Glucagon EIA Kit, produced by K.K. Yanaihara Kenkyuu-sho of Japan), followed by measurement with use of a plate reader (Immuno Mini NJ-2300, Nalge Nunc International K.K. of Japan).\nThe blood-sugar, TC, TG, IRI and IRG levels and the body weight were expressed as a mean value±standard deviation as calculated for each group of animals. With reference to the significance test between the group treated through administration of the medium and each group treated through administration of the compound, the F test was effected to analyze the data and then, the Student's t-test and Aspin-Welch's t-test were used in cases where the variance between the two groups was determined to be equal and unequal, respectively. Referring to the significance level, less than 5% (p<0.05) was considered significant, and the significance level was expressed as divided into the two events of less than 1% (**: p<0.01) and less than 5% (*: p<0.05)."}, "KK-A^y/Ta Jcl mice [5]": {"system": "KK-A^y/Ta Jcl mice", "assay": "Weights of pancreas, liver and kidney at autopsy (Example 3)", "protocol": "On Day 28 of administration of each compound in the form of an admixture with a food, furthermore, each animal after blood had been drawn from the tail vein was treated through individual forced oral administration of the Test Compound 2 in the form of the solutions individually consisting of 0.2, 0.6, 2.0 and 6.0 mg/mL-0.5% CMC suspension in each 5 mL/kg portion, as well as the Control Compound 1 in the form of the solutions individually consisting of 2.0 and 6 mg/mL-0.5% CMC suspension in each 5 ml/kg portion, followed by blood drawing 30 min. later and autopsy to thereby measure the weights of the pancreas, liver and kidney, whereby the control group was treated through administration of the 0.5% CMC suspension in the same portion."}, "[6]": {"conditions": "day preceding administration (baseline), 16.8 mg/100 g-food group"}, "[7]": {"conditions": "autopsy Day 28, Dose 16.8 (g/100 g-food)"}},
  "data": [
    {"smiles": "CCc1ccc(CCOc2ccc(CC3SC(=O)NC3=O)cc2)nc1", "note": "(stereo not shown) [Control Compound 1, 5-{4-[2-(5-ethylpyridine-2-yl)ethoxy]benzyl}-1,3-thiazolidine-2,4-dione, reference compound]", "values": [
      {"measurement": "Blood-sugar lowering effect at the end of the test (Day 28) (in words)", "setting": "KK-A^y/Ta Jcl mice [1]; 16.8 mg/100 g group", "value": "no blood-sugar lowering effect observed"},
      {"measurement": "Time-course changes in blood-sugar level at satiety vs Control Group (in words, FIG. 1)", "setting": "KK-A^y/Ta Jcl mice [1]; 16.8 mg/100 g group", "value": "significant drops in blood-sugar level on Days 6 and 11"},
      {"measurement": "Blood-sugar level", "setting": "KK-A^y/Ta Jcl mice [1]; Dose 5.6 (g/100 g-food)", "value": "561.6 ± 28.2", "unit": "mg/dL"},
      {"measurement": "Blood-sugar level", "setting": "KK-A^y/Ta Jcl mice [1]; Dose 16.8 (g/100 g-food)", "value": "497.0 ± 26.8", "unit": "mg/dL"},
      {"measurement": "Blood-sugar level Day 2", "setting": "KK-A^y/Ta Jcl mice [2]; 16.8 mg/100 g-food admixture", "value": "323.3 ± 15.7", "unit": "mg/dL"},
      {"measurement": "Blood-sugar level Day 5", "setting": "KK-A^y/Ta Jcl mice [2]; 16.8 mg/100 g-food admixture", "value": "350.0 ± 13.6", "unit": "mg/dL"},
      {"measurement": "Blood-sugar level Day 7", "setting": "KK-A^y/Ta Jcl mice [2]; 16.8 mg/100 g-food admixture", "value": "311.3 ± 19.4", "unit": "mg/dL"},
      {"measurement": "Blood-sugar level Day 14", "setting": "KK-A^y/Ta Jcl mice [2]; 16.8 mg/100 g-food admixture", "value": "270.5 ± 10.8", "unit": "mg/dL"},
      {"measurement": "Blood-sugar level Day 1", "setting": "KK-A^y/Ta Jcl mice [2]; [6]", "value": "309.3 ± 21.2", "unit": "mg/dL"},
      {"measurement": "Body weight Day 2", "setting": "[3]; 16.8 mg/100 g-food admixture", "value": "30.4 ± 0.7", "unit": "g"},
      {"measurement": "Body weight Day 5", "setting": "[3]; 16.8 mg/100 g-food admixture", "value": "33.3 ± 0.8", "unit": "g"},
      {"measurement": "Body weight Day 7", "setting": "[3]; 16.8 mg/100 g-food admixture", "value": "34.6 ± 0.6", "unit": "g"},
      {"measurement": "Body weight Day 14", "setting": "[3]; 16.8 mg/100 g-food admixture", "value": "39.4 ± 1.1", "unit": "g"},
      {"measurement": "Body weight Day 1", "setting": "[3]; [6]", "value": "29.8 ± 0.7", "unit": "g"},
      {"measurement": "Effect on body weight (in words)", "setting": "[3]; food admixture 16.8 mg/100 g-food, time course", "value": "tendency to elevate the body weight"},
      {"measurement": "Blood-sugar level before glucose loading", "setting": "KK-A^y/Ta Jcl mice [4]; after 14 days 30 mg/kg p.o., fasted, compound 3 hours prior to loading", "value": "156.9 ± 5.3", "unit": "mg/dL"},
      {"measurement": "Blood-sugar level 120 Min. after glucose loading", "setting": "KK-A^y/Ta Jcl mice [4]; after 14 days 30 mg/kg p.o., glucose 2 g/kg orally", "value": "236.9 ± 19.6", "unit": "mg/dL"},
      {"measurement": "Blood-sugar lowering action in the glucose loading test vs medium control group (in words)", "setting": "KK-A^y/Ta Jcl mice [4]; after repeated administration for 14 consecutive days", "value": "not observed to produce any significant difference"},
      {"measurement": "Weight of the liver (in words)", "setting": "KK-A^y/Ta Jcl mice [5]; autopsy Day 28", "value": "raise further the weight of the liver"},
      {"measurement": "Weight Kidney", "setting": "KK-A^y/Ta Jcl mice [5]; [7]", "value": "0.49 ± 0.02", "unit": "g"},
      {"measurement": "Weight Liver", "setting": "KK-A^y/Ta Jcl mice [5]; [7]", "value": "2.62 ± 0.11", "unit": "g"},
      {"measurement": "Weight Pancreas", "setting": "KK-A^y/Ta Jcl mice [5]; [7]", "value": "0.36 ± 0.01", "unit": "g"}
    ]}
  ]
}
